Data taken from patent EP0254593B1, “Preparation and uses of interferon-gamma” (KABUSHIKI KAISHA HAYASHIBARA SEIBUTSU KAGAKU KENKYUJO, priority 1986, dated 1988).
Where a name gives a salt, the structure may show the parent alone.

Columns and labels:
HLE = assay: Potentialization of cytostatic activity of chemotherapeutics by HuIFN-gamma in vitro; format: cell-based, human; settings: 2880 min
Description: (§1) An aliquot of RPMI 1640 medium supplemented with 15 v/v % fetal calf serum was added with an HuIFN-gamma prepared by the method in Example B-1(3) to a final concentration of 5, 50 or 500 units/ml, and the mixture was inoculated with a malignant human tumor cell to 5×10^5 cell/ml. The resultant was incubated in 5% CO2 incubator at 37°C for three days. As control, the same amount of an HuIFN-gamma preinactivated by 30-minute incubation at 100°C was added to a fresh preparation of the same culture medium, and the mixture was treated similarly as above. After culture, the viable cell was stained with neutral red in accordance with the method as described in Applied Microbiology, Vol.22, No.4, pp.671-677 (1971). Thereafter, the neutral red was eluted with acidified ethanol, and the number of viable cell was determined with the absorbance of the eluate at 540 nm.
(§2) Cytostatic rate (%) was determined with the following equation: Cytostatic rate (%) = ( 1 -(A)/(B)) × 100 [formula] wherein A designates the number of viable cell in the test system, and B, that in the control.
(§3) One ml aliquots of a nutrient culture medium prepared in accordance with the method in Experiment 2-2(1) was inoculated with 10^6 cells of a human malignant tumor cell, and the mixture was cultured for one day. The resultant culture was added with 50 units of an HuIFN-gamma prepared by the method in Example B-1(3) and/or 0.1 ml of saline containing a chemotherapeutic, and cultured at 37°C for two days. As control, a saline free of HuIFN-gamma and chemotherapeutic was used. After the culture, the cytostatic rate (%) was determined in accordance with the method in Experiment 2-2(1). The concentration of the chemotherapeutics were as follows: nimustine hydrochloride (ACNU), 1.0×10^-6 g/ml; fluorouracil (5-FU), 1.5×10^-8 g/ml; doxorubicin (ADM), 1.0×10^-10 g/ml; mitomycin C (MMC), 2.5×10^-9 g/ml; and vincristine sulfate (VCR), 1.5×10^-10 g/ml.

PC-9 = assay: as above; format: cell-based, human; settings: 2880 min
Description: as §1, §2, §3

HeLa = assay: as above; format: cell-based, human; settings: 2880 min
Description: as §1, §2, §3

HEp-2 cell = assay: as above; format: cell-based, human; settings: 2880 min
Description: as §1, §2, §3

[1] = test system: human breast cancer tissue; assay: Cytostatic activity on malignant tumors in vivo (tumor weight); design: species or system BALB/c nude mice; settings: injected once every day for 20 days; dose/kg/day: HuIFN-gamma 50 units, HuIFN-alpha 500 units, TNF 100 units, MMC 1 mg; control 10.8 g
Description: BALB/c nude mice were implanted at their dorsal area with a segment of human breast cancer tissue. From the time when the tumors grew to about 200 mm^3, the nude mice were injected once every day with one or more HuIFN-gamma prepared by the method in Example B-1(3), a lymphokine derived from human lymphoblastoid cell, and/or a chemotherapeutic in saline solution over a period of 20 days.
Thereafter, the nude mice were sacrificed, and the tumors were weighed.
As control, saline was injected similarly as above.

[2] = chemotherapeutic with addition (+) of 50 units HuIFN-gamma, two days, same chemotherapeutic concentrations
[3] = single agent, two days: HuIFN-gamma 50 units, ACNU 1.0×10^-6, 5-FU 1.5×10^-8, ADM 1.0×10^-10, MMC 2.5×10^-9, VCR 1.5×10^-10 g/ml

SMILES	Cytostatic rate (%) (HLE; [2])	Cytostatic rate (%) (HLE; [3])	Cytostatic rate (%) (PC-9; [2])	Cytostatic rate (%) (PC-9; [3])	Cytostatic rate (%) (HeLa; [2])	Cytostatic rate (%) (HeLa; [3])	Cytostatic rate (%) (HEp-2 cell; [2])	Cytostatic rate (%) (HEp-2 cell; [3])	Tumor [1]
Cc1ncc(CNC(=O)N(CCCl)N=O)c(N)n1 [ACNU, nimustine hydrochloride]	63%	5%	65%	2%	72%	5%	54%	4%	
COc1cccc2c1C(=O)c1c(O)c3c(c(O)c1C2=O)C[C@@](O)(C(=O)CO)C[C@@H]3O[C@H]1C[C@H](N)[C@H](O)[C@H](C)O1 [ADM, doxorubicin]	62%	7%	72%	6%	64%	17%	59%	13%	
O=c1[nH]cc(F)c(=O)[nH]1 [Example 5-FU, fluorouracil]	71%	8%	68%	10%	70%	12%	67%	8%	
CO[C@@]12[C@H](COC(N)=O)C3=C(C(=O)C(C)=C(N)C3=O)N1C[C@@H]1N[C@@H]12 [MMC, mitomycin C]	65%	12%	64%	5%	62%	7%	61%	10%	5.1 ± 0.4 g
CC[C@]1(O)C[C@H]2CN(CCc3c([nH]c4ccccc34)[C@@](C(=O)OC)(c3cc4c(cc3OC)N(C=O)[C@H]3[C@@](O)(C(=O)OC)[C@H](OC(C)=O)[C@]5(CC)C=CCN6CC[C@]43[C@@H]65)C2)C1 [VCR, vincristine sulfate]	58%	10%	66%	8%	65%	10%	58%	5%	
